The record followed here is paper PMC3351444, “Molecular Evolution of a Peptide GPCR Ligand Driven by Artificial Neural Networks” (PLoS ONE, 2012).

For orientation: EC50 means the concentration giving half of the maximal effect. The half-life is the time in which the quantity being followed falls by half. Lower therefore signals fast loss.

One series addresses T1, human CMKLR1 (Homo sapiens, UniProt Q99788).
T1 construct: host or cells: HEK293A (Invitrogen), stably expressing human Gα15
T1 sequence (Q99788 1-373): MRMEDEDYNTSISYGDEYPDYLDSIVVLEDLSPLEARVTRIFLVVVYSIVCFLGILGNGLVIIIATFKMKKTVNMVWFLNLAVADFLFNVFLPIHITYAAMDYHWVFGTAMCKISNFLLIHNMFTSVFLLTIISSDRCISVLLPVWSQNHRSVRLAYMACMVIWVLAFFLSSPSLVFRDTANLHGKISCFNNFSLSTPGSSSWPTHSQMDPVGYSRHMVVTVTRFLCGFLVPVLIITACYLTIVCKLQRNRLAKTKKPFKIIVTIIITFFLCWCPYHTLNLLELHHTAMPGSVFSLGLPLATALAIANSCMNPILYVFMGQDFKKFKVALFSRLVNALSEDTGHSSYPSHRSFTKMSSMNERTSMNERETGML
Briefly: Ca2+ mobilization (CellLux imaging) agonist assay in HEK293A cells expressing CMKLR1 and Gα15. Type of series: cell-based. In a few lines:
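Agonist-evoked Ca2+ rise, read as FLUO4-AM fluorescence by imaging, in HEK293A cells carrying CMKLR1 plus Gα15. Peptides were diluted in C1 solution (pH 7.4) containing 0.1% BSA. Duplicate signals were averaged, corrected for buffer wells and normalized to background, and EC50 was fitted from amplitude versus concentration.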

Series [1] in a line: In vitro peptide stability in human serum (RP-HPLC). As to conditions: human, human serum, 25% (v/v) in RPMI.
Description: The initial time is recorded, and at known time intervals 50 µL of the reaction solution is removed and added to 100 µL of 6% aqueous trichloroacetic acid (TCA) for precipitation of serum proteins. […] The reaction supernatant is then analyzed using RP-HPLC (Agilent 1200 LC System) on a ZORBAX Eclipse XDB-C18, 4.6×150 mm, 5 µm column (Agilent). […] Fluorescence is detected at an excitation wavelength of 280 nm and emission wavelength of 340 nm. Kinetic analysis was carried out by least-squares analysis of the logarithm of the integration peak area versus time.
The mark [2] stands for this setting: Ca2+ mobilization, CMKLR1, decimal comma.
Setting [3] is: Ca2+ mobilization, CMKLR1, decimal comma, NR where no EC50 is given, read-out: EC50.

Where two headings read alike, the source gives them in different places. Square brackets hold non-standard residues; d marks the D form. Peptide text beside a SMILES is read from it.

Consider `CC(C)C[C@H](NC(=O)[C@H](C)NC(=O)[C@H](Cc1ccc(O)cc1)NC(=O)[C@@H](CCC(N)=O)NC(=O)CNC(=O)[C@@H]1CCCN1C(=O)[C@H](CC(C)C)NC(=O)[C@@H](N)Cc1ccc(O)cc1)C(=O)N[C@H](Cc1ccccc1)C(=O)O` [compound 135] (H-YLPG[dQ]YAL[dF]-OH; N-terminus assumed), for which the max response on human CMKLR1 (setting [2]) is on record as 1,48 DF/F0. For the same compound, on human CMKLR1 (setting [3]), the EC50 came out at 72.2 nM. This compound gave a half-life at 50 µg/mL in series [1] of 0.667 h.
`CC(C)C[C@H](NC(=O)[C@H](C)NC(=O)[C@H](Cc1ccc(O)cc1)NC(=O)[C@@H](Cc1ccc(O)cc1)NC(=O)CNC(=O)[C@@H]1CCCN1C(=O)[C@H](CC(C)C)NC(=O)[C@@H](N)Cc1ccc(O)cc1)C(=O)N[C@H](Cc1ccccc1)C(=O)O` [compound 136] (H-YLPG[dY]YAL[dF]-OH; N-terminus assumed): the max response on human CMKLR1 (setting [2]) is recorded as 1,4 DF/F0. In addition, the EC50 at human CMKLR1 (setting [3]) was 75 nM. Further, the half-life at 50 µg/mL in series [1] came out at 1.62 h.
The corresponding values for `NC(=O)CC[C@H](NC(=O)CNC(=O)[C@@H]1CCCN1C(=O)[C@@H](Cc1ccc(O)cc1)NC(=O)[C@H](Cc1ccc(O)cc1)NC(=O)[C@H](CCC(N)=O)NC(=O)[C@H](N)Cc1ccccc1)C(=O)N[C@@H](Cc1ccc(O)cc1)C(=O)N[C@@H](Cc1ccc(O)cc1)C(=O)O` [compound 137] (H-[dF]QY[dY]PGQYY-OH; N-terminus assumed) are 1,42 DF/F0, 103 nM and 1.8 h.
As for `CC(C)C[C@H](N)C(=O)N[C@H](Cc1ccccc1)C(=O)NCC(=O)N1CCC[C@@H]1C(=O)N[C@@H](Cc1ccc(O)cc1)C(=O)NCC(=O)N[C@H](Cc1c[nH]c2ccccc12)C(=O)N[C@H](CO)C(=O)N[C@@H](C)C(=O)O` [compound 138] (H-L[dF]G[dP]YG[dW][dS]A-OH; N-terminus assumed), the max response on human CMKLR1 (setting [2]) is given as 1,97 DF/F0. On human CMKLR1 (setting [3]), the concentration for a half-maximal effect (EC50) was 104 nM. In series [1], this compound had a half-life at 50 µg/mL of 10.6 h.
The like results for `CC(C)C[C@@H](NC(=O)[C@H](Cc1c[nH]cn1)NC(=O)[C@@H](N)CO)C(=O)NCC(=O)N[C@@H](CCC(N)=O)C(=O)N[C@@H](Cc1ccccc1)C(=O)N[C@H](Cc1c[nH]c2ccccc12)C(=O)N[C@@H](Cc1ccccc1)C(=O)N[C@H](CO)C(=O)O` [compound 139] (H-SH[dL]GQF[dW]F[dS]-OH; N-terminus assumed) were, in that order, 1,55 DF/F0, 104 nM and 0.933 h.
For the compound `CC(C)C[C@@H](NC(=O)[C@H](Cc1c[nH]cn1)NC(=O)[C@H](N)CO)C(=O)NCC(=O)N[C@@H](CCC(N)=O)C(=O)N[C@@H](Cc1ccc(O)cc1)C(=O)N[C@@H](C)C(=O)N[C@@H](Cc1ccccc1)C(=O)N[C@H](Cc1ccccc1)C(=O)O` [compound 140] (H-[dS]H[dL]GQYAF[dF]-OH; N-terminus assumed), the max response at human CMKLR1 (setting [2]) is 1,49 DF/F0. The half-maximal effective concentration (EC50) at human CMKLR1 (setting [3]) came out at 105 nM. This compound displayed a half-life at 50 µg/mL in series [1] of 10.2 h.
Consider `CC(C)C[C@H](NC(=O)[C@@H](N)Cc1ccc(O)cc1)C(=O)N1CCC[C@H]1C(=O)NCC(=O)N[C@@H](CCC(N)=O)C(=O)N[C@@H](Cc1ccc(O)cc1)C(=O)N[C@@H](C)C(=O)N[C@H](C)C(=O)N[C@H](Cc1ccccc1)C(=O)O` [compound 141] (H-YLPGQYA[dA][dF]-OH; N-terminus assumed), for which the max response on human CMKLR1 (setting [2]) was 1,73 DF/F0. Besides, on human CMKLR1 (setting [3]), the half-maximal effective concentration (EC50) was 108 nM. Moreover, the half-life at 50 µg/mL in series [1] worked out at 0.567 h.
The like results for `CC(C)C[C@H](NC(=O)[C@H](N)Cc1ccc(O)cc1)C(=O)N1CCC[C@H]1C(=O)NCC(=O)N[C@H](Cc1c[nH]c2ccccc12)C(=O)N[C@@H](Cc1ccc(O)cc1)C(=O)N[C@@H](C)C(=O)N[C@@H](Cc1ccccc1)C(=O)N[C@H](Cc1ccccc1)C(=O)O` [compound 142] (H-[dY]LPG[dW]YAF[dF]-OH; N-terminus assumed) were, in that order, 1,55 DF/F0, 128 nM and 7.02 h.
`CC(C)C[C@H](NC(=O)[C@@H](N)CC(C)C)C(=O)N[C@@H](Cc1ccc(O)cc1)C(=O)N[C@H](Cc1c[nH]c2ccccc12)C(=O)N1CCC[C@H]1C(=O)N[C@@H](Cc1ccc(O)cc1)C(=O)N[C@@H](C)C(=O)N[C@@H](CCCCN)C(=O)N[C@H](CO)C(=O)O` [compound 144] (H-LLY[dW]PYAK[dS]-OH; N-terminus assumed): on human CMKLR1 (setting [2]), the max response was 1,56 DF/F0. In addition, the EC50 at human CMKLR1 (setting [3]) came out at 145 nM. In series [1], this compound came in with a half-life at 50 µg/mL of 1.35 h.
For the compound `CC(C)C[C@H](NC(=O)[C@H](Cc1ccc(O)cc1)NC(=O)[C@@H](Cc1ccccc1)NC(=O)[C@@H]1CCCN1C(=O)[C@H](CC(C)C)NC(=O)[C@@H](N)Cc1ccc(O)cc1)C(=O)N1CCC[C@H]1C(=O)NCC(=O)N[C@H](Cc1ccccc1)C(=O)O` [compound 145] (H-YLP[dF]YLPG[dF]-OH; N-terminus assumed), the max response on human CMKLR1 (setting [2]) is reported as 1,02 DF/F0. In addition, the EC50 at human CMKLR1 (setting [3]) was determined as 150 nM. Besides, in series [1], the half-life at 50 µg/mL was found to be 0.667 h.
The corresponding values for `C[C@@H](NC(=O)[C@H](Cc1ccc(O)cc1)NC(=O)[C@H](CCC(N)=O)NC(=O)[C@H](N)Cc1ccccc1)C(=O)N[C@@H](CCC(N)=O)C(=O)N[C@@H](Cc1ccc(O)cc1)C(=O)N[C@H](Cc1c[nH]c2ccccc12)C(=O)N[C@@H](Cc1ccccc1)C(=O)N[C@H](CO)C(=O)O` [compound 146] (H-[dF]QY[dA]QY[dW]F[dS]-OH; N-terminus assumed) are 1,49 DF/F0, 171 nM and 37.7 h.
The corresponding values for `CC(C)C[C@H](NC(=O)[C@@H](N)Cc1ccc(O)cc1)C(=O)N1CCC[C@H]1C(=O)N[C@@H](Cc1ccc(O)cc1)C(=O)N1CCC[C@H]1C(=O)N[C@@H](Cc1ccc(O)cc1)C(=O)N1CCC[C@@H]1C(=O)N[C@@H](Cc1ccccc1)C(=O)N[C@H](Cc1ccccc1)C(=O)O` [compound 147] (H-YLPYPY[dP]F[dF]-OH; N-terminus assumed) are 1,36 DF/F0, 207 nM and 0.467 h.
The like results for `CC(C)C[C@H](NC(=O)[C@H](Cc1ccc(O)cc1)NC(=O)[C@H](CCC(N)=O)NC(=O)[C@@H](Cc1ccccc1)NC(=O)[C@@H](CC(=O)O)NC(=O)[C@@H]1CCCN1C(=O)[C@H](CC(C)C)NC(=O)[C@@H](N)Cc1ccc(O)cc1)C(=O)N1CCC[C@H]1C(=O)O` [compound 148] (H-YLP[dD][dF]QYLP-OH; N-terminus assumed) were, in that order, 1,74 DF/F0, 207 nM and 0.533 h.
As to `CC(C)C[C@H](NC(=O)[C@@H]1CCCN1)C(=O)N[C@H](CCC(N)=O)C(=O)N[C@@H](Cc1ccc(O)cc1)C(=O)N1CCC[C@H]1C(=O)N[C@@H](Cc1ccc(O)cc1)C(=O)N[C@H](CS)C(=O)N[C@@H](CC(C)C)C(=O)N[C@H](Cc1ccccc1)C(=O)O` [compound 149] (H-PL[dQ]YPY[dC]L[dF]-OH; N-terminus assumed), the max response on human CMKLR1 (setting [2]) is 1,51 DF/F0. Besides, the EC50 at human CMKLR1 (setting [3]) worked out at 271 nM. The same compound showed a half-life at 50 µg/mL in series [1] of 0.5 h.
The corresponding values for `CC(C)C[C@H](NC(=O)[C@@H](N)Cc1ccc(O)cc1)C(=O)N1CCC[C@H]1C(=O)N[C@H](Cc1ccc(O)cc1)C(=O)N[C@H](CCC(N)=O)C(=O)N[C@@H](Cc1ccc(O)cc1)C(=O)N[C@@H](C)C(=O)N[C@@H](CCC(N)=O)C(=O)N[C@H](Cc1ccccc1)C(=O)O` [compound 150] (H-YLP[dY][dQ]YAQ[dF]-OH; N-terminus assumed) are 1,35 DF/F0, 284 nM and 1.03 h.
The like results for `CC(C)C[C@H](NC(=O)[C@@H](N)Cc1ccc(O)cc1)C(=O)N1CCC[C@H]1C(=O)N[C@H](CC(C)C)C(=O)NCC(=O)N[C@@H](Cc1ccc(O)cc1)C(=O)N[C@@H](C)C(=O)N1CCC[C@@H]1C(=O)N[C@H](Cc1ccccc1)C(=O)O` [compound 151] (H-YLP[dL]GYA[dP][dF]-OH; N-terminus assumed) were, in that order, 1,47 DF/F0, 298 nM and 1.52 h.
The corresponding values for `CC(C)C[C@H](NC(=O)[C@@H]1CCCN1C(=O)[C@@H]1CCCN1)C(=O)N[C@H](Cc1c[nH]c2ccccc12)C(=O)N[C@@H](CCC(N)=O)C(=O)N[C@@H](Cc1ccc(O)cc1)C(=O)N[C@@H](C)C(=O)N[C@H](CC(=O)O)C(=O)N[C@H](CO)C(=O)O` [compound 153] (H-PPL[dW]QYA[dD][dS]-OH; N-terminus assumed) are 1,31 DF/F0, 313 nM and 1.43 h.
Turning to `CC(C)C[C@H](NC(=O)[C@H](N)Cc1ccccc1)C(=O)N1CCC[C@H]1C(=O)NCC(=O)N[C@@H](CCC(N)=O)C(=O)N[C@@H](Cc1ccc(O)cc1)C(=O)N[C@@H](C)C(=O)N[C@@H](Cc1ccccc1)C(=O)N[C@H](Cc1ccccc1)C(=O)O` [fLPGQYAFf] (H-[dF]LPGQYAF[dF]-OH; N-terminus assumed), on human CMKLR1 (intracellular calcium mobilization, HEK293 cells expressing CMKLR1, mean of three independent experiments ± SD, read-out: activity: EC50 ±SD), the EC50 was found to be 8.2 ± 3.96 nM. In series [1], this compound came in with a half-life at 50 µg/mL of 19.3 ± 0.683 h.
